Data from paper PMC5794828, “A novel galactolipase from a green microalga Chlorella kessleri: purification, characterization, molecular cloning, and heterologous expression” (Applied Microbiology and Biotechnology, 2018).

Experiments:
[1] = biological target: T1, ckGL (purified native galactolipase) (Parachlorella kessleri, UniProt A0A2Z5TTR4); assay: free fatty acid release (NEFA C kit, A550), Lineweaver-Burk linear regression; format: biochemical; details: pH 6.5 MES-NaOH, 37 °C, 2 mM CaCl2, 0.3% (w/v) Triton X-100; substrate is an acyl-chain mixture; read-out: apparent Km
T1 construct: gene chGL; native, purified from C. kessleri cells; N-terminus TALREVATKSEVSEA; ~53 kDa; in Triton X-100
T1 sequence (A0A2Z5TTR4 61-535): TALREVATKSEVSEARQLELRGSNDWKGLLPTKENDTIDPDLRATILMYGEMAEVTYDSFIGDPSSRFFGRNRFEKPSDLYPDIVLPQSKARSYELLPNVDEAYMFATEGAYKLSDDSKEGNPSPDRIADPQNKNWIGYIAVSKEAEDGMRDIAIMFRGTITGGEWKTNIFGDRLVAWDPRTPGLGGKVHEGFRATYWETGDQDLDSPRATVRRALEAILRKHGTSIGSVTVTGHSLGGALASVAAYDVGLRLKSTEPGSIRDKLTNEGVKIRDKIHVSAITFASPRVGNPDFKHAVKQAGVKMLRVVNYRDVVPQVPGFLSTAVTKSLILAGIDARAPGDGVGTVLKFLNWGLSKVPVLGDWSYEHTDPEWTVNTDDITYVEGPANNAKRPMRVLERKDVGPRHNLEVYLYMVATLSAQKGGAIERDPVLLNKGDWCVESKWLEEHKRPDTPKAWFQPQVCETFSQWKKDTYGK

rckGL (recombinant ckGL) = biological target: T2, rckGL (recombinant ckGL) (Parachlorella kessleri, UniProt A0A2Z5TTR4); assay: free fatty acid release (NEFA C kit, A550), nonlinear regression; format: biochemical; details: pH 6.5 MES-NaOH, 37 °C, 2 mM CaCl2, 0.3% (w/v) Triton X-100; substrate is an acyl-chain mixture; read-out: apparent Km
T2 construct: gene chGL; His-tag and trigger factor cut off with factor Xa; ~53 kDa
T2 sequence (A0A2Z5TTR4 61-535): T1 sequence (A0A2Z5TTR4 61-535)

Km [1]: 1050 ± 480 µM
Km (rckGL (recombinant ckGL)): 540 ± 110 µM
Substance: 1,2-diacyl-3-O-(α-D-galactosyl1-6)-β-D-galactosyl-sn-glycerol [DGDG]
